Results taken from patent US6451973B1, “Anilinopeptide derivatives” (Novatis AG, priority 1996, dated 2002).

melting point | SMILES
118 to 121 °C (dec.) | COC(=O)N[C@H](C(=O)N[C@@H](Cc1ccccc1)[C@@H](O)CN(Cc1ccc(N2CCCC2)cc1)NC(=O)[C@@H](NC(=O)OC)C(C)(C)C)C(C)C [Example 11, 1-[p-(Pyrrolidin-1-yl)phenyl]-4(S)-hydroxy-2-[N-(N-methoxycarbonyl-(L)-tert-leucyl)amino]-5(S)-[N-(N-methoxycarbonyl-(L)-valyl)amino]-6-phenyl-2-azahexane]
158 to 161 °C | CC[C@H](C)[C@H](NC(=O)OC)C(=O)NN(Cc1ccc(N2CCCC2)cc1)C[C@H](O)[C@H](Cc1ccccc1)NC(=O)[C@@H](NC(=O)OC)C(C)(C)C [Example 9, 1-[p-(Pyrrolidin-1-yl)phenyl]-4(S)-hydroxy-2-[N-(N-methoxycarbonyl-(L)-isoleucyl)amino]-5(S)-[N-(N-methoxycarbonyl-(L)-tert-leucyl)amino]-6-phenyl-2-azahexane]
